Entries after “also recorded” stand apart in the source; their conditions may differ. Non-standard residues stand in square brackets, D forms with d. No end group written: not given here. pS = N[C@@H](COP(=O)(O)O)C(=O)O
Assays:
[1] = tested on: HCT116 cells; assay: colony formation (clonogenic survival) assay, HCT116 cells; format: cell-based, human
Procedure: For HCT116-derived cells, cells were plated in 6-well plates at 250 cells/well, in triplicate for each drug concentration. Cells were incubated with drugs for 24 h, after which drug-containing medium was replaced with drug-free medium. Seven days later colony counting was performed using a Nikon Eclipse TS100 microscope. For the IR sensitivity test, cells were plated following the same procedure, then irradiated at desired doses and incubated for 7 days before colony counting. Clusters with more than 20 cells were counted as colonies. Mean and standard error of each triplicate was calculated.

[2] = tested on: RIF1-BRCA1 proximity in RPE-1 cells; assay: RIF1-BRCA1 proximity ligation assay, RPE-1 cells; format: cell-based, human
Procedure: (§1) Proximity ligation assays were performed using the Duolink In Situ PLA Fluorescence Protocol (Sigma-Aldrich, DUO92101) following the manufacturer’s instruction. Cells were grown on glass coverslips and treated as indicated for specific experiments. Cells were then permeabilized with 0.5% TritonX-100 in PBS for 10 min on ice, and fixed with 3% formaldehyde, 2% sucrose in PBS for 10 min at room temperature (RT). After fixation, coverslips were blocked in 3% BSA in PBS for 1 h at RT and incubated with primary antibodies (anti-RIF1, Bethel laboratories A300-568A, 1:1000 dilution; anti-BRCA1, Santa Cruz Biotechnologies, sc-6954, 1:200 dilution), for 1 h at RT in a humidity chamber. Primary antibodies were then washed off with PLA washing buffer A supplied in the Duolink In Situ PLA kit. Coverslips were next incubated sequentially with PLA Probes (1 h at 37 °C), ligation solution (30 min at 37 °C) and amplification solution (100 min at 37 °C), with washes by washing buffer A in between each step. At the end of incubation, coverslips were washed with washing buffer B supplied in the Duolink In Situ PLA kit. Coverslips were then mounted on glass slides with PLA Mounting medium with DAPI. Images were captured by fluorescence microscopy (Zeiss Axio Imager). PLA foci number in each nucleus were analysed by CellProfiler Software[74] with a custom-made pipeline.
For EdU labelling combined with proximity ligation assay, cells were labelled with 10 µM EdU for 15 min, washed free of EdU and next incubated with medium containing 4 mM HU medium for 4 h. Cells were then permeabilized, fixed and subjected to RIF1-BRCA1 PLA procedures. After all PLA steps, EdU detection was performed following manufacturer’s instructions in the Click-iT EdU Imaging Kit (Invitrogen, C10640).
(§2) For proximity ligation assays and immunofluorescence signal intensity measurements, when comparing between two samples, statistical significance of differences was calculated by Mann-Whitney test for non-parametric distributions using GraphPad Prism software (v.9). When comparing among three or more samples, p values were calculated by Kruskal-Wallis test for non-parametric distributions with Dunn’s multiple comparisons using GraphPad Prism software (v.9). For RIF1 foci formation analysis (Fig. 6B), p values were calculated by two-tailed Student’s t test. For nuclear BRCA1 intensity fold change analyses (Fig. 6C, D), p values were calculated by two-tailed one-sample t test using GraphPad Prism software (v.9). For RAD51 foci formation analyses (Fig. 7B, E and Supplementary Fig. 7B), p values were calculated by chi-square test. For HR Reporter assay analysis (Fig. 7G and Supplementary Fig. 7L), p values were calculated by two-tailed paired Student’s t test. For micronuclei frequency analysis (Fig. 7H), p values were calculated by one-tailed paired Student’s t test. All Student’s t tests were performed with Excel T.TEST function. Chi-square tests were performed with the online Chi-square test calculator at https://www.socscistatistics.com/tests/chisquare2/default2.aspx. Sample number n for all box-and-whisker plots and dot plots are listed in Supplementary Data 1.

[3] = tested on: RIF1-L phosphoS2265; assay: Western blot, RIF1-L phosphoS2265, HeLa cells; format: cell-based, human
Procedure: Cells were harvested in 10 mM Tris-HCl pH 7.5, 2 mM EDTA buffer and lysed with laemmli sample buffer (Bio-Rad, 1610737, supplemented with 5% β-mercaptoethanol). Samples were heated at 95 °C for 15 min and centrifuged at 13,000 × g for 15 min. Protein concentrations were measured by RC DC Protein Assay (Bio-Rad, 5000122). Equal amounts of total proteins for each sample were separated in Mini-PROTEAN TGX Stain-free Precast Gels (Bio-Rad) by SDS-PAGE. Gels were at this stage imaged with the ChemiDoc Touch Imaging System (Bio-Rad) using the ‘Protein gel – Stain free’ module to obtain stain-free gel images. Proteins on gel were transferred to PVDF membranes (Bio-Rad, 1704274) using the Trans-Blot Turbo Blotting System (Bio-Rad). Membranes were blocked in 3% BSA in TBS-T (1x TBS supplemented with 0.1% Tween-20) at RT for 1 h, followed by incubation with primary antibodies overnight at 4 °C. Membranes were washed with TBS-T and then incubated with secondary antibodies for 1 h at RT. The blots were developed with Clarity ECL reagents (Bio-Rad, 1705060) and imaged with the ChemiDoc Touch Imaging System (Bio-Rad). Primary antibodies used for western blotting include anti-RIF1 (Bethyl Laboratories, A300-568A. 1:5000); anti-RIF1-L-Phospho-S2265 (amsbio, custom. 1:5000); anti-BRCA1 (D-9) (Santa Cruz Biotechnology, sc-6954. 1:1000); anti-BARD1 (Bethyl Laboratories, A300-263A. 1:1000); anti-53BP1 (Novus Biologicals, NB100-94. 1:5000); anti-PP1α (G4) (Santa Cruz Biotechnology, sc-271762. 1:1000); anti-Tubulin (YOL1/34) (Santa Cruz Biotechnology, sc-53030. 1:4000); anti-FLAG (M2) (Sigma-Aldrich, F1804. 1:2000); anti-GFP (Chromotek, 3h9. 1:2000); anti-RFP (Chromotek, 5f8. 1:2000). Uncropped and unprocessed Western Blot images are provided in the Source Data file.

[4] = tested on: RIF1-BRCA1 proximity in HeLa cells; assay: RIF1-BRCA1 proximity ligation assay, HeLa cells; format: cell-based, human; details: HeLa +RIF1-L
Procedure: as §1, §2

[5] = tested on: BRCA1 nuclear signal; assay: BRCA1 nuclear immunofluorescence intensity, HeLa cells; format: cell-based, human
Procedure: Cells were grown on glass coverslips and treated as desired. Cells were then permeabilized with 0.5% TritonX-100 in PBS for 7 min on ice, and fixed with 4% w/v formaldehyde solution (Sigma HT5012) for 10 min at room temperature (RT). After fixation, coverslips were blocked with 3% BSA in PBS (RT, 1 h), incubated with primary antibodies (RT, 2 h), washed with PBS three times and incubated with secondary antibodies (RT, 1 h). Primary antibodies used for immunofluorescence include anti-γH2A.X (20E3) (Cell Signalling Technology, 9718. 1:500); anti-RPA32/RPA2 (9H8) (Abcam, ab2175. 1:200); anti-RAD51 (H92) (Santa Cruz Biotechnology, sc-8349. 1:100); anti-BrdU (B44) (BD Biosciences, 347580. 1:100); Coverslips were then mounted on glass slides with mounting medium with DAPI. Images were captured by either standard (Zeiss Axio Imager) or confocal (Zeiss LSM-880) microscopy. Fluorescence signal intensities within each nucleus were analysed by CellProfiler software with custom-made pipelines. […]
as §2, with “All Student’s t tests were performed with Excel T.TEST function. Chi-square tests were performed with the online Chi-square test calculator at https://www.socscistatistics.com/tests/chisquare2/default2.aspx. Sample number n for all box-and-whisker plots and dot plots are listed in Supplementary Data 1.” left out

[6] = tested on: micronuclei; assay: micronuclei frequency, HeLa cells; format: cell-based, human; details: Fig.7H
Procedure: as §2

[7] = target: BRCA1 C-terminal tandem BRCT domains (UniProt P38398); assay: fluorescence polarisation titration; details: reference: pS2265 peptide, untreated; sites S2265
[8] = tested on: BRCA1-BRCT domain; assay: X-ray crystal structure of peptide with BRCA1-BRCT (PDB 8RS8); format: binding, human
Procedure: For crystallographic studies, the N-terminal HIS-SUMO tag was removed from the His6-SUMO-BRCA1-BRCT2 by incubation with GST-3C protease (in house) for 12 h at 4 °C. A Superdex 75 16/60 size exclusion column (GE Healthcare) was used to purify the BRCT2 domains to homogeneity in 10 mM HEPES pH 7.5, 200 mM NaCl, 0.5 mM TCEP.
An unlabelled RIF1 pS2265 peptide (SPGSR(pS)PKFKS) (Peptide Protein Research Ltd, Bishops Waltham, UK) was mixed with the pure BRCA1-BRCT2 domains at a five molar excess prior to concentration to 15 mg/ml for use in crystallisation trials. Crystals grew in condition MORPHEUS E2 (55.5 mM MES, 44.5 mM Imidazole, 120 mM Diethylene glycol, 120 mM Triethylene-glycol, 120 mM Tetraethylene glycol, 120 mM Pentaethylene glycol, 20% (v/v) Ethylene glycol, 10% (w/v) PEG 8000) (Molecular Dimensions) and were looped before flash freezing in liquid nitrogen. Data were collected on beamline I04-1 at the Diamond Synchrotron Lightsource and the structure was determined using PHASER[70] to perform molecular replacement with PDB 4IGK as a search model before refinement using the PHENIX software package. Figures were produced using PyMOL v2.2.2.

[9] = Chk1i (PF-477736) 1 µM 24 h + HU 4 mM 24 h
[10] = Fig 4F, Chk1i (PF-477736) 1 µM 24 h + HU 4 mM 24 h
[11] = Fig S4G (repeat), Chk1i (PF-477736) 1µM + HU 4mM 24hr
[12] = ATRi (VE-821) 1 µM 24 h + HU 4 mM 24 h
[13] = Fig 4F, ATRi (VE-821) 1 µM 24 h + HU 4 mM 24 h
[14] = Fig S4G (repeat), ATRi (VE-821) 1µM + HU 4mM 24hr
[15] = Fig S4H, ATRi (VE-821) 1µM + HU 4mM 24hr

## CC[C@@]1(O)C(=O)OCc2c1cc1n(c2=O)Cc2cc3ccccc3nc2-1 [CPT, camptothecin]
[1]; HCT116 expressing only RIF1-L, versus RIF1-WT
  colony survival, RIF1-L cells: RIF1-L conferred resistance comparable to RIF1-WT
[1]; HCT116 expressing only RIF1-S, versus RIF1-KO
  colony survival, RIF1-S cells: exhibited hypersensitivity to these drugs similar to RIF1-KO cells
[2]; CPT 100 nM 24 h
  RIF1-BRCA1 PLA foci: also induced PLA foci
[2]; Fig 3C, CPT 100 nM 24 h
  RIF1-BRCA1 PLA foci per nucleus, mean: 4.982
  RIF1-BRCA1 PLA foci per nucleus, median: 4

## Cn1cc(-c2[nH]c3cc(NC(=O)[C@H](N)C4CCCCC4)cc4c3c2C=NNC4=O)cn1 [PF-477736]
[2]; [9]
  RIF1-BRCA1 PLA foci formation: abolished PLA foci formation
[2]; [10]
  RIF1-BRCA1 PLA foci per nucleus, mean: 0.156
  RIF1-BRCA1 PLA foci per nucleus, median: 0
[2]; [11]
  RIF1-BRCA1 PLA foci per nucleus, mean: 0.316
  RIF1-BRCA1 PLA foci per nucleus, median: 0
[3]; [9]
  HU-induced reduction of phosphoS2265 signal: partially reversed by Chk1 inhibition

## CS(=O)(=O)c1ccc(-c2cnc(N)c(C(=O)Nc3ccccc3)n2)cc1 [VE-821]
[2]; [12]
  RIF1-BRCA1 proximity signal: significantly lowered the RIF1-BRCA1 proximity signal
[2]; [13]
  RIF1-BRCA1 PLA foci per nucleus, mean: 1.672
  RIF1-BRCA1 PLA foci per nucleus, median: 1
[2]; [14]
  RIF1-BRCA1 PLA foci per nucleus, mean: 1.661
  RIF1-BRCA1 PLA foci per nucleus, median: 1
[4]; [15]
  RIF1-BRCA1 PLA foci per nucleus, mean: 13.09
  RIF1-BRCA1 PLA foci per nucleus, median: 12
[4]; [12]
  RIF1-BRCA1 PLA: also reduced RIF1-BRCA1 PLA
[3]; [12]
  HU-induced reduction of phosphoS2265 signal: reversed by simultaneous ATR inhibition

## RIF1-L
[5]; Exp 1
  BRCA1 nuclear signal mean intensity: 12.65
[5]; Exp 2
  BRCA1 nuclear signal mean intensity: 11.6
[5]; Exp 3
  BRCA1 nuclear signal mean intensity: 10.09
[6]; HU, experiment 14Apr2024
  Micronuclei per 100: 7.605
[6]; HeLa RIF1 KO + GFP-RIF1 derivative cells, HU, experiment 07Jun2024
  Micronuclei per 100: 5.84
[6]; HeLa RIF1 KO + GFP-RIF1 derivative cells, unt, experiment 07Jun2024
  Micronuclei per 100: 3.60
[6]; unt, experiment 14Apr2024
  Micronuclei per 100: 3.159

## RIF1-Long (RIF1-L) (from UniProt Q5UIP0) λ phosphatase treated peptide
[7]
  binding against the reference: lost

## SPGSR[pS]PKFKS [RIF1-L phospho-peptide, unlabelled RIF1 pS2265 peptide used for crystallography]
[8]; MORPHEUS E2
  binding mode in crystal: fits within the BRCT pocket of BRCA1 as expected; also recorded: positively charged amino acids K^2267 and K^2269 of RIF1-L lie adjacent to the negatively charged E^1698 BRCA1 residue
[8]; MORPHEUS E2, listed as RIF1-L peptide
  binding mode in crystal: found in the canonical phosphate binding pocket of the BRCA1 BRCTs

Reference: paper PMC12214830, “The human RIF1-Long isoform interacts with BRCA1 to promote recombinational fork repair under DNA replication stress” (Nature Communications, 2025)
